This is an account of results in patent US10300000B2, “Inhibition of melanogenesis by chemically modified curcumins” (The Research Foundation for The State University of New York, priority 2016, dated 2019).

Test [1] concerns the target T1, intracellular tyrosinase in B16F10 cells (Mus musculus, UniProt P11344).
T1 construct: endogenous in cells; host or cells: B16F10
T1 sequence (P11344 19-533): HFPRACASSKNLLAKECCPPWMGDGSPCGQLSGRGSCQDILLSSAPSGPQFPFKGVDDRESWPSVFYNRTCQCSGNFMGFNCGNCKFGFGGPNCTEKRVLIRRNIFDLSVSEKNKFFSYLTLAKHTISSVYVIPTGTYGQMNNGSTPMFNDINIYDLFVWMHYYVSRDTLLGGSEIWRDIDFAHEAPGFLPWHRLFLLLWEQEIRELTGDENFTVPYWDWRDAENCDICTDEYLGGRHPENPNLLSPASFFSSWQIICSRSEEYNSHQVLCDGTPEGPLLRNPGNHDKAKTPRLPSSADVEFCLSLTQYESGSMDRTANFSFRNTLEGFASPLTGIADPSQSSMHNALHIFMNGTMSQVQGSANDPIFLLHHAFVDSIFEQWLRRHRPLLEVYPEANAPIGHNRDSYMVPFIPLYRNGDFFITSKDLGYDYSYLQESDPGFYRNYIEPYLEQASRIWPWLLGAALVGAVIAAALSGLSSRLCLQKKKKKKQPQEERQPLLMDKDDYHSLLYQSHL
Nature of the test: Recovery study of intracellular tyrosinase activity in B16F10 cells. Particulars: for tyrosinase activity after removal of compound: 2 day recovery post 2 day exposure. It counts as cell-based. The method, then:
In order to establish reversibility of tyrosinase inhibition by the CMCs, we conducted a “recovery” study over a 2 day interval using the highest concentrations of the compounds which produced maximum tyrosinase activity inhibition without toxicity. B16F10 were plated in six-well plates at 3.5×10^4 cells/well and compounds were added (PC-10 μM, CMC2.14-10 μM, CMC2.5-20 μM, CMC2.23-25 μM and CMC2.24 at 20 μM) next day. Tyrosinase activity in one set of cultures after detachment and lysis as described herein was estimated after 2 day exposure while another set of cultures were continued with fresh media without the compounds to study reversibility of tyrosinase activity inhibition for another 2 days. Results are expressed as % tyrosinase activity for both 2 day exposure and 2 day recovery post 2 day exposure.

The subject of a further test is HEM-DP cells. Nature of the test: Melanin content quantification in human epidermal melanocytes. The test is classed as cell-based. Particulars: 48 hours. Here is the method:
Primary cultures of human epidermal melanocytes from a darkly pigmented donor were seeded at 2.2×10^5 cells/well in 1.5 ml media in 12-well plates and incubated for 48 hours. The test compounds were added to cultures and controls were treated with 0.16% DMSO, and further incubated for another 48 hours. For evaluation of melanin content, cells in the wells were trypsinized and cell pellets were washed in PBS. After aspiration, 250 μL of 1N NaOH was added and heated to 70° C. to solubilize melanin. The aliquots were then transferred to a 96-well plate and absorbance was read at 475 nm using microplate reader. A portion of the lysate was used to evaluate total protein content using […] bincinchonic acid (BCA) assay (Pierce BCA kit, Thermo Scientific). The absorbance of melanin was normalized to the total protein content for each lysate and reported as % of control.

Test [2] deals with T2, cellular tyrosinase in HEM-DP cells (Homo sapiens, UniProt P14679).
T2 construct: endogenous in cells; host or cells: HEM-DP (primary human epidermal melanocytes, darkly pigmented donor)
T2 sequence (P14679 19-529): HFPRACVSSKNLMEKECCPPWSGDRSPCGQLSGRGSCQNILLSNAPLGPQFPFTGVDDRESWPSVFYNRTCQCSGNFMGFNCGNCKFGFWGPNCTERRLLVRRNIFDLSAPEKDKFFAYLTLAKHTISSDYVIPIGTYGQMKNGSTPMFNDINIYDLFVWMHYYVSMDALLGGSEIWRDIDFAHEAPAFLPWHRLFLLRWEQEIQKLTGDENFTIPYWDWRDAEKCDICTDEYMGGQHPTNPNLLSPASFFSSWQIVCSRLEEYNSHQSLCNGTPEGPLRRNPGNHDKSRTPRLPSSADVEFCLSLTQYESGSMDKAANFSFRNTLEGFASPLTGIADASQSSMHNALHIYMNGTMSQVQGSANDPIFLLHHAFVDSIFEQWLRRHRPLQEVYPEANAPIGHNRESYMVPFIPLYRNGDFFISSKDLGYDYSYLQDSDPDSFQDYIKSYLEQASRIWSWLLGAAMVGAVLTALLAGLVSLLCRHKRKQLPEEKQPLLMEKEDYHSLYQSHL
In words: Intracellular tyrosinase activity in human melanocytes. It counts as cell-based. The note with it: 48 hours. Here is the method:
We quantitated the cellular tyrosinase activity of human melanocytes based on established methods. Briefly, human epidermal melanocytes from a darkly pigmented donor (HEM-DP) were cultured in 12-well tissue culture plates at density of 1.5×10^5 cells/well. After 48 hrs. media was changed and test compounds were added, and further incubated for 48 hrs. At the end of treatments, cells were trypsinized and cell pellets were washed in PBS and lysed with lysis buffer under ice for 30 minutes and then centrifuged to remove cellular debris. 50 μl of lysates were then aliquoted in 96-well microplate and 150 μl of freshly prepared 3 mM L-DOPA was added. The absorbance was then measured kinetically at 475 nm every 30 seconds for 30 minutes at 30° C. using microplate reader (Versamax®). The % inhibition of tyrosinase activity was calculated by determining melanin formation rates from the linear range of the slopes of melanin formation over time for the different samples and calculating % inhibition from the measured velocities of melanin formation.

The target in test [3] is T3, intracellular tyrosinase in HEM-DP cells (Homo sapiens, UniProt P14679).
T3 construct: endogenous in cells; host or cells: HEM-DP (primary human epidermal melanocytes, darkly pigmented donor)
T3 sequence (P14679 19-529): T2 sequence (P14679 19-529)
Nature of the test: Recovery study of intracellular tyrosinase activity in human melanocytes. It counts as cell-based. The method, then: In order to study if the melanocytes could recover from inhibited tyrosinase activity after exposure to the CMCs, we employed a model for reversibility of inhibition of tyrosinase activity inhibition. This can establish safety of the compounds since irreversible inhibition of tyrosinase activity could damage melanocyte synthetic machinery with potential loss of the protective function of melanin. […] Briefly, HEM-DP were plated in 6-well plates at 2.3×10^5 cells/well and grown for 3 days and then CMCs were added. Tyrosinase activity was estimated after 2 day exposure in cellular lysates and another set of cultures were continued with fresh media without the compounds for further 5 days (with media change at day 3), in order to study reversibility of melanin inhibition.

The subject of another test is B16F10 cells. Nature of the test: Melanin content quantification in B16F10 cells. Particulars: for inhibition of melanin content / effect on melanin content (words): 48 hours; for effect on melanin content (words): B16F10, tested concentrations; for IC50: B16F10 cells exposed for 48 hours, non-linear curve fitting, read-out: IC50-Melanin Inhibition. The test is classed as cell-based, mouse. The method, then: B16F10 cells were seeded at 1×10^5 cells/well in 1.5 ml media in 12-well plates and incubated for 24 hours. […] For quantification of melanin content, cells were trypsinized and cell pellets were washed in PBS. Cell pellets were also visually observed for lightening of the intracellular pigment. After aspiration, 250 μL of 1N NaOH was added and heated to 70° C. to solubilize melanin. The aliquots were then transferred to a 96-well plate and absorbance was read at 475 nm using a microplate reader. A portion of the lysate was used to evaluate total protein content using BCA assay. The melanin absorbance was normalized by total protein content and expressed as % of control.

The subject of the next test is HaCaT cells. The note with it: HaCaT, 48 hours.

Structures are written as SMILES. Like-named read-outs stand apart in the source and are kept apart here.

Description for HaCaT cells: Briefly, 2×10^4 cells/well were seeded in 96-well plates and after 24 hours, the compounds at concentrations of 5-25 μM were added to the wells and incubated for 48 hours. Absorbance was read after 1 hour of incubation of plates and results were expressed as % of control.

In the case of `COC(=O)C(C(=O)C=Cc1ccc(O)c(OC)c1)C(=O)C=Cc1ccc(O)c(OC)c1` (centres unmarked) [CMC2.5, 4-methoxycarbonyl curcumin], the “tyrosinase activity after removal of compound” value in test [1] (B16F10, 20 μM) was “completely recovered”. Moreover, the “reduction in melanin content” value with HEM-DP cells (20 μM) is listed as approximately 20%. In addition, in test [2] (20 μM), the “inhibition of cellular tyrosinase activity” value stood at 16%. Besides, the “reduction of tyrosinase activity at the exposure time” value in test [3] (20 μM, 2 day exposure) was found to be 12%.
In the case of `COC(=O)C(C(=O)/C=C/c1ccc(O)cc1)C(=O)/C=C/c1ccc(O)cc1` [CMC2.14], the “inhibition of melanin content” value in the test with B16F10 cells (B16F10, 10 μM) came to 32.21%. Moreover, in the test with B16F10 cells, the “effect on melanin content (words)” value was “moderate inhibition” and the IC50 (usually the point on the concentration scale where inhibition reaches its midpoint) came to 15.1 µM. Also, in test [1] (B16F10, 10 μM, 2 day exposure), the “loss of tyrosinase activity” value is listed as “up to 75%”. Further, in test [1] (B16F10, 10 μM), the “tyrosinase activity after removal of compound” value worked out at 100%. In addition, in the test with HaCaT cells (5 μM), the “stimulation of cell proliferation” value was 23.2%. Further, the “stimulation of cell proliferation” value in the test on HaCaT cells (10 μM) is recorded as 15.5%.
As to `COc1cc(/C=C/C(=O)C(C(=O)/C=C/c2ccc(O)c(OC)c2)C(=O)Nc2ccccc2)ccc1O` [CMC2.23], the “inhibition of melanin content” value with B16F10 cells (B16F10, 25 μM) was 46.4%. Also, the “effect on melanin content (words)” value in the test with B16F10 cells is reported as “most potent inhibition”; in the test on B16F10 cells (listed as 2.23) it was “moderate inhibition”. Further, the IC50 with B16F10 cells is 24.1 µM. In addition, the “reduction in melanin content” value with HEM-DP cells (10 μM) and with HEM-DP cells (20 μM) was 20% in each case. Further, the “inhibition of cellular tyrosinase activity” value came to 25% in test [2] (5 μM), 35% in test [2] (10 μM) and 49% in test [2] (20 μM). Further, in test [3] (5 days after removal, CMC2.24 10 μM, CMC2.23 and CMC2.5 20 μM), the “recovery of tyrosinase activity” value is “partially recovered”. The entries for the “stimulation of cell proliferation” value in the test with HaCaT cells (10 μM) and with HaCaT cells (20 μM) were 11.3% and 22.9%, respectively.
